Measured values taken from the supplement of paper PMC10307832.

Columns and labels:
Experiment in all cases: relative viability (nuclei count vs DMSO), 5 days (fraction); higher = more cells survive
AT-7519 + Tozasertib = compound: O=C(NC1CCNCC1)c1n[nH]cc1NC(=O)c1c(Cl)cccc1Cl [AT-7519] + Cc1cc(Nc2cc(N3CCN(C)CC3)nc(Sc3ccc(NC(=O)C4CC4)cc3)n2)n[nH]1 [Tozasertib] (partner 0.1 µM)
Procedure, shortened: (§1)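 Lung cancer cell lines were pin-tool dosed in 1536-well plates on the day after seeding, with either a lone drug or a fixed anchor-drug dose plus five library-drug doses (not always all listed) in √10 steps. Nuclei were counted on 4× images after 5 days. Relative viability is the ratio of treated-well to vehicle-well nuclei counts, with each value a median of duplicate plates.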

AT-7519 + Olaparib = compound: O=C(NC1CCNCC1)c1n[nH]cc1NC(=O)c1c(Cl)cccc1Cl [AT-7519] + O=C(c1cc(Cc2n[nH]c(=O)c3ccccc23)ccc1F)N1CCN(C(=O)C2CC2)CC1 [Olaparib] (partner 8 µM)
Procedure, shortened: as §1

[1] = compound: C1=CC2=C(C=C(C(=C2N=C1)O)N=NC3=CC4=C(C=C3)C=C(C=C4)S(=O)(=O)O)S(=O)(=O)O + CS(=O)(=O)N1CCN(Cc2cc3nc(-c4cccc5[nH]ncc45)nc(N4CCOCC4)c3s2)CC1 [Pictilisib] (partner 1 µM)
Procedure, shortened: as §1

[2] = compound: C1=CC2=C(C=C(C(=C2N=C1)O)N=NC3=CC4=C(C=C3)C=C(C=C4)S(=O)(=O)O)S(=O)(=O)O + COc1cc2c(Oc3ccc(NC(=O)C4(C(=O)Nc5ccc(F)cc5)CC4)cc3F)ccnc2cc1OCCCN1CCOCC1 [Foretinib] (partner 0.25 µM)
Procedure, shortened: as §1

Cell Line	relative viability (AT-7519 + Tozasertib; first compound 0.01 µM)	relative viability (AT-7519 + Tozasertib; first compound 0.3162 µM)	relative viability (AT-7519 + Tozasertib; first compound 1 µM)	relative viability (AT-7519 + Olaparib; first compound 0.01 µM)	relative viability (AT-7519 + Olaparib; first compound 0.3162 µM)	relative viability (AT-7519 + Olaparib; first compound 1 µM)	relative viability (AT-7519 + Tozasertib; first compound 0.03162 µM)	relative viability ([1]; first compound 0.08 µM)	relative viability ([1]; first compound 0.253 µM)	relative viability ([1]; first compound 0.8 µM)	relative viability ([1]; first compound 2.53 µM)	relative viability ([1]; first compound 8 µM)	relative viability (AT-7519 + Olaparib; first compound 0.03162 µM)	relative viability ([2]; first compound 0.08 µM)	relative viability ([2]; first compound 0.253 µM)	relative viability ([2]; first compound 0.8 µM)	relative viability ([2]; first compound 2.53 µM)	relative viability ([2]; first compound 8 µM)
NCI-H1648	0.37	0.371	0.405	0.852	0.696	0.49												
SK-MES-1	0.928	0.814	0.243	0.662	0.56	0.257	1	0.444	0.354	0.376	0.328	0.377	0.791	0.86	0.856	0.874	0.761	1.15
HCC-366	0.0905	0.119	0.0621	0.409	0.281	0.164	0.186	0.142	0.139	0.165	0.219	0.203	0.424	0.927	0.92	0.891	0.964	0.851
201T	1.01	0.946	0.977	0.895	0.917	0.666	1.01	0.625	0.696	0.649	0.695	0.72	0.846	1.21	1.14	1.15	1.15	1.05
HCC-827	0.399	0.447	0.645	0.635	0.659	0.54	0.403	1.09	1.07	0.801	1.02	0.992	0.815	1.12	0.955	0.995	1.05	1.08
NCI-H647	0.44	0.22	0.227	0.355	0.482	0.189	0.218	0.357		0.436	0.505	0.394	0.55	1.33	1.09	1.14	1.28	1.3
NCI-H2023	0.362	0.295	0.135	0.46	0.386	0.128	0.379	0.218	0.261	0.257	0.251	0.298	0.485	0.769	0.747	0.794	0.997	0.876
NCI-H520	0.438	0.399	0.385	0.341	0.287	0.201	0.453	0.298	0.282	0.332	0.26	0.269	0.315	1.01	0.828	0.901	0.887	1.05
RERF-LC-KJ	0.426	0.5	0.204	0.884	0.659	0.242	0.505	0.623	0.648	0.588	0.56	0.543	0.964	1.02	0.835	0.837	0.999	0.844
A-427	0.26	0.207	0.14	0.806	0.713	0.382	0.211	0.665	0.731	0.629	0.672	0.709	0.745	0.986	1.06	1.01	1.08	1.03
NCI-H441	0.788	0.573	0.343	0.524	0.446	0.204	0.565	0.475	0.49	0.37	0.528	0.498	0.559	1.11	1.06	1.04	1.07	1.05
NCI-H1703				0.454	0.388	0.175		0.264	0.232	0.265	0.246	0.197	0.435	0.334		0.356	0.363	0.302
NCI-H1792				0.282	0.522	0.311		0.304	0.26	0.295	0.286	0.302	0.313					
Calu-6				0.622	0.688	0.262		0.903	1.01	0.955	0.974	0.838	0.641	0.887	0.846	0.92	0.886	0.912
SK-LU-1	0.306	0.254	0.264	0.462	0.489	0.324	0.364	0.615	0.55	0.57	0.61	0.621	0.458	1.01	0.768	0.787	0.787	0.889
PC-3 [JPC-3]	0.93	0.88	0.902	1.19	1.09	0.981	0.903	0.79	0.771	0.663	0.713	0.694	1.1	1.1	1.03	1.08	0.99	0.951
EMC-BAC-2	0.339	0.302	0.308	0.508	0.506	0.56	0.286	0.514	0.566	0.522	0.555	0.349	0.48	1.07	0.987	1.04	1.07	0.842
LK-2	0.18		0.206	0.815	0.706	0.593	0.165	0.677	0.522	0.613	0.541	0.552	0.74	1.33	1.3	0.899	0.911	1.37
NCI-H2126	0.946	0.504	0.32	0.902	0.932	0.874	0.865	0.505	0.518	0.506	0.522	0.523	0.935	1.22	1.16	1.22	1.25	1.15
NCI-H3122	0.535	0.175	0.136	0.664	0.627	0.579	0.41	0.629	0.552	0.555	0.616	0.638	0.651	0.967	0.977	0.925	0.982	0.973

Cell Line	relative viability (AT-7519 + Tozasertib; first compound 0.01 µM)	relative viability (AT-7519 + Tozasertib; first compound 0.3162 µM)	relative viability (AT-7519 + Tozasertib; first compound 1 µM)	relative viability (AT-7519 + Olaparib; first compound 0.01 µM)	relative viability (AT-7519 + Olaparib; first compound 0.3162 µM)	relative viability (AT-7519 + Olaparib; first compound 1 µM)	relative viability (AT-7519 + Tozasertib; first compound 0.03162 µM)	relative viability ([1]; first compound 0.08 µM)	relative viability ([1]; first compound 0.253 µM)	relative viability ([1]; first compound 0.8 µM)	relative viability ([1]; first compound 2.53 µM)	relative viability ([1]; first compound 8 µM)	relative viability (AT-7519 + Olaparib; first compound 0.03162 µM)	relative viability ([2]; first compound 0.08 µM)	relative viability ([2]; first compound 0.253 µM)	relative viability ([2]; first compound 0.8 µM)	relative viability ([2]; first compound 2.53 µM)	relative viability ([2]; first compound 8 µM)
NCI-H1975	0.609	0.626	0.133	0.816	0.641	0.15	0.7	0.327	0.299	0.268	0.305	0.286	0.67	0.912	1.02	0.916	1.04	0.952
NCI-H1944	0.25	0.249	0.213	0.383	0.412	0.337	0.24	0.333	0.348	0.327	0.345	0.332	0.424	0.899	0.937	0.93	0.769	0.748
LU99A	0.26	0.297	0.218	0.278	0.228	0.229	0.276	0.391	0.314	0.251	0.297	0.37	0.247	0.958	0.812	0.684	0.913	0.732
SW 1573	0.151	0.143	0.125	0.463	0.2	0.0972	0.151	0.449	0.431	0.475	0.447	0.523	0.505	1.1	1.02	1.02	1.01	0.444
NCI-H2347	0.635	0.425	0.442	0.619	0.561	0.41	0.512	0.651	0.585	0.541	0.657	0.683	0.506	1.07	1.12	0.766	1.13	0.801
NCI-H2009	0.751	0.703	0.515	0.663	0.61	0.707	0.72	0.789	0.82	0.757	0.747	0.761	0.697	1.3	1.25	1.18	1.28	0.739
HCC-15	0.378	0.434	0.199	0.712	0.73	0.355	0.524	0.839	0.766	0.635	0.804	0.636	0.772	1.15	0.972	0.936	1.07	0.985
HCC-44	1.14	0.303	0.231	1.08	0.937	1.02	0.809	0.649	0.636	0.548	0.649	0.766	1.01					
COR-L23	0.177	0.148	0.144	0.362	0.264	0.102	0.189	0.982	0.81	0.692	0.753	0.857	0.361	1.01	0.961	1.02	1.06	0.995
HCC-78	0.631	0.49	0.326	1.01	0.806	0.666	0.451	0.206	0.178	0.221	0.219	0.118	0.758	0.608	0.571	0.525	0.563	0.3
NCI-H1299				0.97	0.935	1.09		0.755	0.823	0.821	0.87	0.623	1	1.17	1.04	1.04	1.09	1.06
NCI-H727	0.574	0.519	0.367	0.711	0.7	0.365	0.551	0.591	0.311	0.217	0.358	0.482	0.772	0.939	0.759	0.835	1.03	0.774
SW 900	0.613	0.639	0.375	1.06	0.622	0.371	0.484						0.8	0.806	0.9	0.912	0.786	0.741
NCI-H1563								0.623	0.638	0.653	0.626	0.701		1.04	1.02	0.91	0.996	0.895
A549				0.312	0.315	0.368		0.522	0.449	0.545	0.509	0.322	0.309	1.06	0.954	0.929	0.928	0.928
NCI-H2342	0.483	0.493	0.557	0.391	0.454	0.443	0.52						0.427	1.22	1.1	1.15	1.11	1.05
NCI-H1623	0.378	0.518	0.393				0.401							0.845	0.874	0.854	0.832	0.6
NCI-H522		0.57	0.486	0.75	0.664	0.498	0.514						0.595					
IA-LM				0.866	0.834	0.631		0.302	0.312	0.283	0.347	0.322	0.892	1.3	1.01	1.1	1.18	1.12
EBC-1				0.88	0.664	0.546		0.511	0.333	0.439	0.391	0.499	0.773	0.1	0.106	0.104	0.0986	0.0948
